Literature values in patent publication US20240401031A1, “Platform Using iPSC-Derived Cardiomyocytes Carrying Gene Variants as Models of Cardiac Disease and Drug-Response” (SRI INTERNATIONAL, priority 2021, published 2024).

Conditions: source CredibleMeds

Compound | Risk (Torsade de Pointes)
COc1ccccc1OCC(O)CN1CCN(CC(=O)Nc2c(C)cccc2C)CC1 (centres unmarked) [Ranolazine] | (CR)
CONC(=O)Nc1ccc(-c2sc3c(c2CN(C)C)c(=O)n(-c2ccc(OC)nn2)c(=O)n3Cc2c(F)cccc2F)cc1 [Relugolix] | (PR)
COC(=O)CC[C@@H]1N=C(c2ccccn2)c2cc(Br)ccc2-n2c(C)cnc21 [Remimazolam] | (PR)
CN(C)C(=O)c1cc2cnc(Nc3ccc(N4CCNCC4)cn3)nc2n1C1CCCC1 [Ribociclib] | (PR)
Cc1cc(/C=C/C#N)cc(C)c1Nc1ccnc(Nc2ccc(C#N)cc2)n1 [Rilpivirine] | (PR)
CC(NCCc1ccc(O)cc1)C(O)c1ccc(O)cc1 (centres unmarked) [Ritodrine] | (SR)
CC[C@H]1OC(=O)[C@H](C)[C@@H](O[C@H]2C[C@@](C)(OC)[C@@H](O)[C@H](C)O2)[C@H](C)[C@@H](O[C@@H]2O[C@H](C)C[C@H](N(C)C)[C@H]2O)[C@](C)(O)C[C@@H](C)/C(=N\OCOCCOC)[C@H](C)[C@@H](O)[C@]1(C)O [Roxithromycin] | (KR)
CNCc1ccc(-c2[nH]c3cc(F)cc4c3c2CCNC4=O)cc1 [Rucaparib] | (PR)
OCc1cc(C(O)CNCCCCCCOCCCCc2ccccc2)ccc1O (centres unmarked) [Salmeterol] | (SR)
COc1ccc(CN2C3CC2CN(c2ccc(-c4cc(OCC(C)(C)O)cn5ncc(C#N)c45)cn2)C3)cn1 [Selpercatinib] | (PR)
O=C1NCCN1CCN1CCC(c2cn(-c3ccc(F)cc3)c3ccc(Cl)cc23)CC1 [Sertindole] | (KR)
CN[C@H]1CC[C@@H](c2ccc(Cl)c(Cl)c2)c2ccccc21 [Sertraline] | (CR)
FCOC(C(F)(F)F)C(F)(F)F [Sevoflurane] | (KR)
CCc1cc(/C(C)=N/OCc2ccc(C3CCCCC3)c(C(F)(F)F)c2)ccc1CN1CC(C(=O)O)C1 [Siponimod] | (PR)
CNC(=O)c1cc(Oc2ccc(NC(=O)Nc3ccc(Cl)c(C(F)(F)F)c3)cc2)ccn1 [Sorafenib] | (PR)
C[C@@H]1CN(c2c(F)c(N)c3c(=O)c(C(=O)O)cn(C4CC4)c3c2F)C[C@H](C)N1 [Sparfloxacin] | (KR)
CCN1CCCC1CNC(=O)c1cc(S(N)(=O)=O)ccc1OC (centres unmarked) [Sulpiride] | (KR)
CCN1CCCC1CNC(=O)c1cc(S(=O)(=O)CC)ccc1OC (centres unmarked) [Sultopride] | (KR)
CCN(CC)CCNC(=O)c1c(C)[nH]c(/C=C2\C(=O)Nc3ccc(F)cc32)c1C [Sunitinib] | (PR)
C=CC[C@@H]1/C=C(\C)C[C@H](C)C[C@H](OC)[C@H]2O[C@@](O)(C(=O)C(=O)N3CCCC[C@H]3C(=O)O[C@H](/C(C)=C/[C@@H]3CC[C@@H](O)[C@H](OC)C3)[C@H](C)[C@@H](O)CC1=O)[C@H](C)C[C@@H]2OC [Tacrolimus] | (PR)
CCN(c1cc(-c2ccc(CN3CCOCC3)cc2)cc(C(=O)NCc2c(C)cc(C)[nH]c2=O)c1C)C1CCOCC1 [Tazemetostat] | (PR)

Compound | Risk (Torsade de Pointes)
CCC[C@H](NC(=O)[C@@H]1[C@H]2CCC[C@H]2CN1C(=O)[C@@H](NC(=O)[C@@H](NC(=O)c1cnccn1)C1CCCCC1)C(C)(C)C)C(=O)C(=O)NC1CC1 [Telaprevir] | (CR)
CC[C@H]1OC(=O)[C@H](C)C(=O)[C@H](C)[C@@H](O[C@@H]2O[C@H](C)C[C@H](N(C)C)[C@H]2O)[C@](C)(OC)C[C@@H](C)C(=O)[C@H](C)[C@H]2N(CCCCn3cnc(-c4cccnc4)c3)C(=O)O[C@]12C [Telithromycin] | (PR)
CC(C)(C)NCC(O)c1cc(O)cc(O)c1 (centres unmarked) [Terbutaline] | (SR)
CC(CC(c1ccccc1)c1ccccc1)NC(C)(C)C (centres unmarked) [Terodiline] | (KR)
COc1cc2c(cc1OC)C1CC(=O)C(CC(C)C)CN1CC2 (centres unmarked) [Tetrabenazine] | (PR)
CCN(CC)CCNC(=O)c1cc(S(C)(=O)=O)ccc1OC [Tiapride] | (PR)
CN(C)CCOc1ccc(/C(=C(/CCCl)c2ccccc2)c2ccccc2)cc1 [Toremifene] | (PR)
Cc1cccc(Nc2ccncc2S(=O)(=O)NC(=O)NC(C)C)c1 [Torsemide] | (CR)
COc1cccc(C2(O)CCCCC2CN(C)C)c1 (centres unmarked) [Tramadol] | (PR)
O=c1n(CCCN2CCN(c3cccc(Cl)c3)CC2)nc2ccccn12 [Trazodone] | (CR)
CC(CN(C)C)CN1c2ccccc2CCc2ccccc21 (centres unmarked) [Trimipramine] | (PR)
CN1[C@@H]2CC[C@H]1C[C@@H](OC(=O)c1c[nH]c3ccccc13)C2 [Tropisetron] | (PR)
COc1cc2c(cc1OC)[C@H]1C[C@@H](OC(=O)[C@@H](N)C(C)C)[C@H](CC(C)C)CN1CC2 [Valbenazine] | (PR)
COc1cc2c(Nc3ccc(Br)cc3F)ncnc2cc1OCC1CCN(C)CC1 [Vandetanib] | (KR)
CCCS(=O)(=O)Nc1ccc(F)c(C(=O)c2c[nH]c3ncc(-c4ccc(Cl)cc4)cc23)c1F [Vemurafenib] | (PR)
C=C/C=C/C[C@@H](C)[C@@H](O)[C@H]1C(=O)N[C@@H](CC)C(=O)N(C)CC(=O)N(C)[C@@H](CC(C)C)C(=O)N[C@@H](C(C)C)C(=O)N(C)[C@@H](CC(C)C)C(=O)N[C@@H](C)C(=O)N[C@H](C)C(=O)N(C)[C@@H](CC(C)C)C(=O)N(C)[C@@H](CC(C)C)C(=O)N(C)[C@@H](C(C)C)C(=O)N1C [Voclosporin] | (PR)
O=C(CCCCCCC(=O)Nc1ccccc1)NO [Vorinostat] | (PR)
Cc1cc(C(C)(C)C)cc(C)c1CC1=NCCN1 [Xylometazoline] | (SR)
O=C1Cc2cc(CCN3CCN(c4nsc5ccccc45)CC3)c(Cl)cc2N1 [Ziprasidone] | (CR)
OCCN1CCN(CC/C=C2/c3ccccc3Sc3ccc(Cl)cc32)CC1 [Zuclopenthixol] | (PR)
